# US12428455B2, “Dominant negative CEBPB and CEBPD proteins and methods of use for decreasing viability of neoplastic cells” (The Trustees of Columbia University in the City of New York, priority 2018, dated 2025)
# No end group written: not given here.
# Tests used:
# IL6 = test: qPCR for IL6 mRNA; type: cell-based; conditions: 20 μM, 3 days; T98G, MDA-MB-231, MCF7, A375 and HCT116 cells
# Procedure: T98G, MDA-MB-231, MCF7, A375, and HCT116 cells were treated with or without 20 μM CP-dn-CEBPB or CP-dn-CEBPD for 3 days and then assessed by qPCR for relative levels of IL6 (FIG. 32A, T98G; FIG. 32B, MDA-MB-231; FIG. 32C, MCF7; FIG. 32D, A375; FIG. 32E, HCT116) and IL8 mRNA (FIG. 32F, T98G; FIG. 32G, MDA-MB-231; FIG. 32H, MCF7; FIG. 32I, A375; FIG. 32J, HCT116).
# [1] = system: ASNS (Asparagine synthetase); test: qPCR for ASNS; type: cell-based; conditions: 20 μM, 3 days; T98G, MDA-MB-231, MCF7, A375 and HCT116 cells
# Procedure: T98G, MDA-MB-231, MCF7, A375, and HCT116 cells were treated with or without 20 μM CP-dn-CEBPB or CP-dn-CEBPD for 3 days and then assessed by qPCR for relative levels of ASNS (Asparagine synthetase) (FIG. 33A, T98G; FIG. 33B, MDA-MB-231; FIG. 33C, MCF7; FIG. 33D, A375; FIG. 33E, HCT116).
# T98G cells = test: Combination with gamma radiation, cell number, T98G; type: cell-based; conditions: 2 Gy or 5 Gy; peptide 0.05, 0.5 or 5 μM one day later, 6 days; CI<1 indicates synergism
# Procedure: (§1) Replicate cultures of T98G and HCT116 cells were exposed to 2 Gy or 5 Gy of gamma radiation. One day later, the cultures were treated with 0.05 μM, 0.5 μM, or 5 μM CP-dn-CEBPB and CP-dn-CEBPD peptides, maintained for 6 days, and then assessed for cell number. The bar graphs of FIGS. 24A (T98G, CP-dn-CEBPB), 24C (T98G, CP-dn-CEBPBD, 24E (HCT116, CP-dn-CEBPD), and 24G (HCT116, CP-dn-CEBPD) show relative cell numbers for each condition as compared to untreated controls. The line graphs of FIGS. 24B (T98G, CP-dn-CEBPB), 24D (T98G, CP-dn-CEBPBD, 24F (HCT116, CP-dn-CEBPB), and 24H (HCT116, CP-dn-CEBPD) show the response as normalized in each case so that 100 represents the relative number of surviving cells that received the indicated level of radiation treatment, but no peptide treatment. Calculated Combination Indexes (CI) are T98G, CI=0.61±0.05 for CP-dn-CEBPB, 0.68±0.07 for CP-dn-CEBPD; HCT116, 0.89±0.04 for CP-dn-CEBPB, 0.86±0.05 for CP-dn-CEBPD. CI=1 indicates additivity; CI<1 indicates synergism; CI>1 indicates antagonism.
# [2] = system: MCF10A non-cancer human breast epithelial cells; test: Cell number after peptide treatment, MCF10A; type: cell-based; conditions: 6 days, 0 μM to 50 μM; stock without BSA
# Procedure: Replicate cultures of HIEC-6 non-cancer human intestinal epithelial cells, MCF10A non-cancer human breast epithelial cells, or normal human astrocytes were exposed to CP-DN-CEBPB or CP-DN-CEBPD, for 6 days at doses of 0 μM to 50 μM. […] Stock solutions of the peptides were prepared in buffer without added bovine serum albumin (BSA).
# MDA-MB-231 cells = test: Apoptotic nuclei, propidium iodide flow cytometry, MDA-MB-231; type: cell-based; conditions: 20 μM, 3 days, vs untreated cells
# Procedure: MDA-MB-231, MCF7, HCT116 and T98G cancer cell lines were treated for 3 days with 20 μM CP-dn-CEBPB and CP-dn-CEBPD peptides from stock solutions prepared without additives. Cultures were stained with propidium iodide and assessed for proportion of cells with apoptotic nuclei by flow cytometry.
# [3] = system: HIEC-6 non-cancer human intestinal epithelial cells; test: Morphology after peptide treatment, HIEC-6; type: cell-based; conditions: 5 to 6 days, 20 μM or 50; stock without BSA
# Procedure: Stock solutions of the peptides were prepared in buffer without added bovine serum albumin (BSA).
# T98G and HCT116 cells = test: Combination with gamma radiation, overall conclusion; type: cell-based; conditions: 2 Gy or 5 Gy; immediate or delayed peptide treatment
# Procedure: Replicate cultures of T98G and HCT116 cells were exposed to 2 Gy or 5 Gy of gamma radiation. Immediately, the cultures were treated with 3 μM, 10 μM, or 20 μM CP-dn-CEBPB and CP-dn-CEBPD peptides, maintained for 6 days, and then assessed for cell number. […]
# as §1, with “CI=1 indicates additivity; CI<1 indicates synergism; CI>1 indicates antagonism.” left out
# [4] = system: MDA-MB-468 breast cancer cells; test: Cell number after peptide treatment, MDA-MB-468; type: cell-based, human; conditions: 6 days, 0 μM to 50 μM; stock without BSA
# Procedure: Replicate cultures of MDA-MB-468 breast cancer cells, A549 lung cancer cells and 293T transformed embryonic kidney cells were exposed to CP-DN-CEBPB or CP-DN-CEBPD, for 6 days at doses of 0 μM to 50 μM. […] Stock solutions of the peptides were prepared in buffer without added bovine serum albumin (BSA).
# HCT116 cells = test: Colony forming activity on culture plates, HCT116; type: cell-based; conditions: 6 days; doses 0.05, 0.5 and 5 μM
# Procedure: T98G (FIG. 21A), MDA-MB 231 (FIG. 21B), and HCT116 (FIG. 21C) cells were exposed to CP-DN-CEBPB and CP-DN-CEBPD for 6 days at doses of 0.05 μM 0.5 μM, and 5 μM while growing in soft agar. Growth was inhibited by does as low as 0.5 μM. T98G (FIG. 21D), MDA-MB 231 (FIG. 21E), and HCT116 (FIG. 21F) cells were exposed to CP-DN-CEBPB and CP-DN-CEBPD for 6 days at doses of 0.05 μM 0.5 μM, and 5 μM while growing on culture plates. Growth was inhibited by does as low as 0.5 μM.
Sequence,relative levels of IL6 mRNA (IL6),relative levels of ASNS [1],Combination Index (CI) with gamma radiation (T98G cells),number of MCF10A cells [2],proportion of cells with apoptotic nuclei (MDA-MB-231 cells),morphology of HIEC-6 cells [3],kind of combined effect with gamma radiation (T98G and HCT116 cells),number of MDA-MB-468 cells [4],"lowest dose at which growth was inhibited, culture plates (HCT116 cells) [µM]"
RQIKIWFQNRRMKWKKLETQHKVLELTAENERLQKKVEQLSRELSTLRNLFKQL [CP-DN-CEBPB],suppress expression,suppress expression of ASNS,0.61±0.05,did not cause a dose-dependent decrease,increased apoptotic cell death,did not affect the morphology,synergistic effect,dose-dependent decrease in the number,0.5
RQIKIWFQNRRMKWKKLVELSAENEKLHQRVEQLTRDLAGLRQFFK [CP-DN-CEBPD],suppress expression,suppress expression of ASNS,0.68±0.07,did not cause a dose-dependent decrease,increased apoptotic cell death,did not affect the morphology,synergistic effect,dose-dependent decrease in the number,0.5
